Laboratory results taken from patent US8293979B2, “Weed controller metabolism proteins, genes, thereof and use of the same” (Sumitomo Chemical Company, Limited, priority 2001, dated 2012).

Tests used:
[1] = system: present invention protein (A25); assay: Detection of the ability to convert compound (II) to compound (III), E. coli pKSN1609F extract; format: in vitro ADME, Streptomyces steffisburgensis IFO 13446T; conditions: 3 ppm of compound (II) labeled with 14C, components A, B, 10 minutes at 30° C.
Procedure: (§1) Reaction solutions of 30 μl were prepared and maintained for 10 minutes at 30° C. The reaction solutions consisted of a 0.1M potassium phosphate buffer (pH7.0) containing 3 ppm of compound (II) labeled with ^14C, 2 mM of β-NADPH (hereinafter, referred to as “component A”) (Oriental Yeast Company), 2 mg/ml of a ferredoxin derived from spinach (hereinafter referred to as “component B”) (Sigma Company), 0.1 U/ml of ferredoxin reductase (hereinafter, referred to as “component C”) (Sigma Company) and 23 μl of the supernatant fraction recovered in Example 32(2). Similarly to Example 4(3), the reaction solutions after the maintenance were extracted with ethyl acetate and the extracted layers were TLC analyzed. […] A spot corresponding to compound (III) was detected from the reaction solution containing E. coli pKSN849AF extract. In contrast, such a spot was not detected from the reaction solution containing E. coli pKSN2 extract.
(§2) Similarly to Example 32(3), reaction solutions of 30 μl were prepared and maintained for 10 minutes at 30° C. […] The reaction solutions after the maintenance were extracted with ethyl acetate and the extracted layers were TLC analyzed. […] A spot corresponding to compound (III) was detected from the reaction solution containing E. coli pKSN1609F extract. In contrast, such a spot was not detected from the reaction solution containing E. coli pKSN2 extract.

[2] = system: present invention protein (A24); assay: Detection of the ability to convert compound (II) to compound (III), E. coli pKSN1589BF extract; format: in vitro ADME, Streptomyces rutgersensis IFO 15875T; conditions: 3 ppm of compound (II) labeled with 14C, components A, B, 10 minutes at 30° C.
Procedure: as §1
as §2, with “pKSN1589BF” for “pKSN1609F”

[3] = system: present invention protein (A11); assay: Detection of the ability to convert compound (II) to compound (III), E. coli pKSN849AF extract; format: in vitro ADME, Streptomyces nogalator IFO13445; conditions: 3 ppm of compound (II) labeled with 14C, components A, B, 10 minutes at 30° C.
Procedure: Reaction solutions of 30 μl were prepared and maintained for 1 hour at 30° C. The reaction solutions consisted of a 0.1M potassium phosphate buffer (pH7.0) containing 3 ppm of compound (II) labeled with ^14C, 2 mM of β-NADPH (hereinafter, referred to as “component A”) (Oriental Yeast Company), 0.2 mg/ml of a ferredoxin derived from spinach (hereinafter referred to as “component B”) (Sigma Company), 1 U/ml of ferredoxin reductase (hereinafter, referred to as “component C”) (Sigma Company) and 18 μl of the supernatant fraction recovered in Example 4(2). Further, there were prepared and maintained similarly reaction solutions having no addition of at least one component utilized in the composition of the above reaction solution, selected from component A, component B and component C. […] Next, the imaging plate was analyzed on Image Analyzer BAS2000 (Fuji Film Company). […]
as §2, with “Reaction” for “Similarly to Example 32(3), reaction”, “Similarly to Example 4(3), the” for “The”, “pKSN849AF” for “pKSN1609F”

Blackgrass = assay: Herbicidal activity test, soil surface treatment; format: in vivo, Alopercurus myosuroides; design: key: 0: situations in which the condition of sprouting or vegetation at the time of examination of the plant utilized for the test was compared with and showed totally or substantially no difference with that of the untreated application; 10: situations in which the plant completely withered or the sprouting or vegetation was completely suppressed; conditions: 500 g/ha, sprayed onto the surface of the soil after seeding, investigated after 19 days in a greenhouse
Procedure: Soil was packed into a round plastic pot having a diameter of 10 cm and depth of 10 cm. Barnyardgrass, Blackgrass, Ivyleaf morningglory were seeded. Five (5) parts of the test compound, 6 parts of sorpol3005X (Toho Chemical Company) and 89 parts of xylene were well mixed to produce an emulsion. A certain amount thereof was diluted with water containing 0.1% (v/v) of a sticking agent at a proportion of 1000 L for 1 hectare and was spread uniformly with a spray-gun onto the surface of the soil. After cultivating the plants for 19 days in a greenhouse, the herbicidal activity was investigated.
In the above Tables 3 and 4, the strength of the herbicidal activity is shown stepwise as 0, 1, 2, 3, 4, 5, 6, 7, 8, 9, and 10.

## C[C@@H](Oc1cc(-n2c(=O)cc(C(F)(F)F)n(C)c2=O)c(F)cc1Cl)C(=O)O [compound (II)]
[1]
  spot corresponding to compound (III) labeled with 14C (TLC): detected
[2]
  spot corresponding to compound (III) labeled with 14C (TLC): detected
[3]
  spot corresponding to compound (III) labeled with 14C (TLC): detected
Blackgrass
  Herbicidal Activity Blackgrass: 10
